# Test results as given in patent US7494976B2, “Caveolin peptides and their use as therapeutics” (Yale University, priority 2000, dated 2009).
# Entries after “also recorded” stand apart in the source; their conditions may differ.
# Columns and labels:
# [1] = system: isolated mouse aorta; assay: Ach-induced relaxation of isolated mouse aortic rings (organ bath); conditions: 10 μM peptide, twenty hours incubation, PE precontracted rings
# Method: (§1) For isolated mouse aortic rings preparations, male C57 black mice (5-7 weeks of age) were anesthetized with methoxyflurane and sacrificed by exsanguination. The thoracic aorta was dissected and cut into cylindrical segments of three millimeters in length. Using a sterile 48-well tissue culture plate, each ring was incubated in a total volume of one ml with either peptides or vehicle (DMSO) diluted in DMEM supplemented with penicillin (100 units/ml), streptomycin (100 μg/ml) and L-glutamine (1 mM). The plate was incubated with 5% CO2. Following incubation with the peptides (one, six, twelve or twenty hours), rings were washed in oxygenated (95% O2-5% CO2) Krebs-Henseleit bicarbonate buffer solution (KHS) of the following composition (NaCl—118.3 mmol/L, KCl—4.7 mmol/L, CaCl2—2.5 mmol/L, MgSO4—1.2 mmol/L, KH2PO4—1.2 mmol/L, NaHCO3—25 mmol/L, glucose—5.6 mmol/L at 37° C. with ibuprofen (10 μM). The rings were suspended by two tungsten wires ([…] thickness) inserted into the lumen and mounted in a vessel myograph system (five ml chamber, Kent Scientific). The mouse aortas were submitted to a resting tension of 1.5 grams and isometric tension was recorded using a force transducer coupled to a MacLab data acquisition system. […] In some experiments concentration-response curves to the contractile effects of PE were monitored.
# [2] = system: isolated mouse aorta; assay: Phenylephrine-induced contraction of isolated mouse aorta; conditions: 10 μM peptide preincubation
# Method: as §1
# [3] = system: mouse aortic rings; assay: L-NAME induced contraction of peptide-pretreated mouse aortic rings; conditions: vessels pretreated with 10 μM peptide; L-NAME 100 μM
# Method: as §1, with “monitored. […]” for “monitored.”
# [4] = system: isolated mouse aortas; assay: Sodium nitroprusside induced (endothelium independent) relaxation of mouse aorta; conditions: 10 μM peptide, twenty hours; SNP 10 μM
# [5] = system: prostacyclin production; assay: Prostacyclin release from mouse aortic rings (6-keto-PGF1α by EIA); conditions: peptide twenty hours; Ach 1 μM thirty minutes
# Method: To further test the specificity of AP-Cav, Ach-induced prostacyclin production was measured. For measurement of prostacyclin release, after twenty hour incubation period, aortic segments (4-5 mm) were placed in sterile 48-well tissue culture plates with 300 μl of KHS at 37° C. for thirty minutes in an incubator. Then aliquots of […] were taken in order to measure the basal release of prostacyclin. Ach (1 μM) was added and the plate was kept in the incubator for an additional thirty minutes. Aliquots were then taken in order to measure the Ach-stimulated release of prostacyclin. This protocol was performed in absence or in presence of ibuprofen (10 μM). The aliquots were frozen and prostacyclin release was measured as the stable breakdown product, 6-keto-PGF1α, by EIA (Amersham).
# [6] = system: bovine aortic endothelial cells (BAEC); assay: Ionomycin stimulated NO release from cultured endothelial cells (chemiluminescence); type: cell-based; conditions: 1 μM peptide six hours; ionomycin 1 μM thirty minutes
# Method: For measurement of nitric oxide release from cultured endothelial cells, bovine aortic endothelial cells (BAEC) were cultured in high glucose Dulbecco's modified Eagle's medium (DMEM) containing 10% (v/v) fetal bovine serum, penicillin, streptomycin and L-glutamine. For measurement of ionomycin stimulated NO release, confluent BAEC were cultured in […]. Cells were washed and media was changed to serum free DMEM containing peptides or vehicle (0.01% DMSO). Following a six hour incubation, peptides were washed out and cells were stimulated with ionomycin (1 μM) for thirty minutes. Media was collected and processed for the measurement of nitrite (NO2—), the stable breakdown product of NO in aqueous solution, by NO-specific chemiluminescence. Samples containing NO2— were refluxed in glacial acetic acid containing sodium iodide. […] In all experiments, NO2— release was inhibitable by a NOS inhibitor.
# [7] = system: carrageenan induced paw edema; assay: Murine carrageenan induced paw edema model; type: in vivo, mouse; conditions: 1 mg/kg, paws 48 hours post-injection, H&E
# Method: For in vivo inflammation studies the murine carrageenan induced paw edema model was used. Briefly, male, Swiss mice (25-30 grams) were divided in groups (n=6-7) and lightly anaesthetised with methoxyflurane. Each group of animals received a subplantar administration of 50 μl of 1% (w/v) λ carrageenan. Paw volume was measured using a hydroplethismometer modified for measuring small volumes (Ugo Basile) immediately before the carrageenan injection and twenty-four and forty-eight hours thereafter. The increase in paw volume is evaluated as the difference between paw volume at each time point and the basal volume. AP-Cav (0.3, 1 mg/kg i.p.) AP-Cav-X (1 mg/kg i.p.) and dexamethasone (0.1 mg/kg s.c.) were administered at the time of carrageenin administration (time zero) and at twenty-four and forty-eight hours. In a separate series of experiments, forty-eight hours post carrageenan injections, animals were sacrificed by cervical dislocation and both paws were cut. The right paws were embedded in OCT medium and cross sections ([…] of thickness) were obtained for staining with hematoxylin and eosin.
# [8] = system: HepG-2 tumors; assay: HepG-2 tumor growth in nude mice; type: in vivo, mouse; conditions: 2.5 mg/kg, day fourteen
# Method: The ability of the AP-Cav peptide to influence tumor growth in vivo was also examined. Nude mice were injected with the HepG-2 cells, a human hepatocarcinoma line, and the effects of AP-Cav and AP-Cav-X examined after daily administration of the peptides intraperitoneal. For HepG-2 cells implants in nude mice, the human hepatocarcinoma cell line, HepG-2, was cultured in minimal essential media with 10% fetal bovine serum, 2 mM L-glutamine, penicillin and streptomycin. Cells were grown on 150 mm dishes up to 80% confluence, trypsinized and ressuspended in serum free media. Viable cells were counted using the trypan blue exclusion method. A cell suspension was prepared at a density of 5×10^7 cells/ml. Nude mice were then injected in the flank with 100 μl of the HepG-2 cell suspension.
# When the tumors reached a solid palpable mass (7-10 days), treatment with the different drugs began. Peptides were dissolved in 0.01% (v/v) DMSO and administered daily by i.p. injection (100 μl/20 gram mouse) for fourteen days. Tumor volume was determined every day using the formula width^2×length×0.52. For histochemistry tumors were excised from the animal at day fourteen, washed in phosphate buffered saline and fixed in 70% ethanol. […] Images were captured using a Zeiss microscope coupled to a CCD camera and were recorded with the NIH Image program.
# [9] = system: vascular leakage; assay: Mustard oil induced Evans blue extravasation in the mouse ear (vascular permeability); type: in vivo; conditions: 2 mg/kg i.p., forty-five minute pretreatment; read after thirty minutes
# Method: FIG. 10—AP-caveolin peptide reduces vascular leakage. Mice were pretreated with AP-Cav, AP-Cav-X (2 mg/kg of each, i.p.) or L-NAME (30 mg/kg, i.p.) for forty-five minutes followed by Evans blue administration (30 mg/kg, i.v.). Mustard oil was applied to the ventral and dorsal side of the right ear one minute after Evans blue injection. The extent of Evans blue extravasation was assessed after thirty minutes (n=4 mice per group for vehicle and L-NAME treated mice and n=5 for AP-Cav and AP-Cav-X treated mice; *p<0.05). (D) Representative pictures of mice subjected to mustard oil induced inflammation.
# To directly assess if the AP-peptide can influence vascular leakage in an additional model, we treated mice with vehicle, AP-Cav, AP-Cav-X (2 mg/kg, i.p. for each; forty-five minute pretreatment) or L-NAME (30 mg/kg, i.p., […] pretreatment) and examined the ability of mustard oil to induce the extravasation of Evans blue, as an index of vascular permeability. […] Thus, in two distinct models, AP-Cav reduces inflammation likely through attenuating eNOS-dependent blood flow and/or permeability changes evoke by inflammatory stimuli.
substance,measurement,setting,value
"AP-Cav-X: Scrambled control peptide Cav-X (WGIDKAFFTTSTVTYKWFRY, SEQ ID NO: 9) fused to the antennapedia internalization sequence; SEQ ID NO: 12 (RQIKIWFQNRRMKWKKWGIDKAFFTTSTVTYKWFRY)",effect on Ach-induced relaxation,[1],did not influence Ach-induced relaxation
same,potentiation of the vasoconstrictor actions of phenylephrine,[2],but not AP-Cav-X resulted in potentiation
same,further increase in isometric tension by L-NAME,[3],further increased isometric tension
same,effect on vasorelaxant properties of sodium nitroprusside,[4],had no effect
same,basal or Ach stimulated prostacyclin production (6-keto-PGF1α),[5],Neither AP-Cav-X nor AP-Cav influenced; also recorded: do not affect Ach-induced prostacyclin release
same,calcium ionophore stimulated NOx release,[6],but not AP-Cav-X blocked
same,cellular infiltration into the sites of inflammation (histology),[7],did not show marked differences
same,tumor morphology (hematoxylin and eosin),[8],classical epitheliod appearance and were highly vascularized
same,vascular leak (Evans blue extravasation),[9],dilated vessels and diffuse blue dye in the periphery of the right ear
